Experimental data from patent publication US8063071B2 (GlaxoSmithKline, LLC, priority 2007, dated 2011).
Structures can show the parent of a compound that is named as a salt.

Assays:
[1] = molecular target: T1, Recombinant human IKKβ (residues 1-737) (Homo sapiens, UniProt O14920); test: IKK2 assay (TR-FRET); format: biochemical; conditions: ATP 1 μM final, read-out: pIC50 against IKK2 (converted)
T1 construct: Recombinant human IKKβ (residues 1-737); GST (C); made in house
T1 sequence (O14920 1-737): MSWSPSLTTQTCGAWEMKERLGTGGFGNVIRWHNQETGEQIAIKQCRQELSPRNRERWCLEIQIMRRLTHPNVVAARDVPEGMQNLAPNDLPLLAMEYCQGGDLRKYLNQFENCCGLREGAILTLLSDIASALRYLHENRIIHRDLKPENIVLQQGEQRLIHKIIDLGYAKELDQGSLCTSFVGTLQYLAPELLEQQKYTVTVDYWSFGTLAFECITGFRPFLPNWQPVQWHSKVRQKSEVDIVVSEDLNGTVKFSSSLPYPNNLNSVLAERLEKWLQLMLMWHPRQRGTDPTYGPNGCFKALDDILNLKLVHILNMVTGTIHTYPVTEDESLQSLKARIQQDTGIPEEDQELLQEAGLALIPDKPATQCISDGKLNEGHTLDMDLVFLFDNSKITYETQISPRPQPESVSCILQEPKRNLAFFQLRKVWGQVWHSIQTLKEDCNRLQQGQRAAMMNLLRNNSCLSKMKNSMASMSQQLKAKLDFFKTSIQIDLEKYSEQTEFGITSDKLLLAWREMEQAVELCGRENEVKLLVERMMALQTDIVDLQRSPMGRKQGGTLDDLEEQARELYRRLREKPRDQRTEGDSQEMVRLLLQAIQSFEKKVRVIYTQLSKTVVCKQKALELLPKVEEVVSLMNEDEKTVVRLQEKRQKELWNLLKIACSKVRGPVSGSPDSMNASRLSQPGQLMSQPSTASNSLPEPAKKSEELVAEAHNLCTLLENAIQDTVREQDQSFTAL
Summary of the method: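 TR-FRET readout (665 nm over 620 nm Eu reference) of GST-IB Ser32/36 phosphorylation after 60 min detection. Reaction: 1 μM ATP, 25 nM substrate, 0.5-5 nM GST-fused IKKβ 1-737 from baculovirus, pH 7.4 HEPES buffer, 1.7% DMSO, 15 min room temperature, EDTA-terminated.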

[2] = tested on: human monocyte stimulated cytokine production (TNF-α); test: Monocyte assay (LPS-stimulated TNF-α production); format: cell-based; conditions: for IC50: 24 h, 200 ng/mL LPS, TNF-α by ELISA; for inhibition at 0.3 µM: read-out: inhibition at 300 nM in the monocyte assay
Summary of the method: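 TNF-α release was measured by ELISA after 24 hrs at 37 C. Cells were stimulated with 200 ng/mL E. coli LPS, with compound added 30 minutes beforehand (0.1% DMSO vehicle). Cells were Ficoll/MACS-isolated CD14+ human monocytes adhered at 1×10^6 cells/mL, and viability was checked by trypan blue.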

Compound	IC50 [1] [µM]	IC50 [2] [µM]	inhibition at 0.3 µM [2] [%]
CCS(=O)(=O)N1CCC(c2c[nH]c3c(C(N)=O)cc(-c4cc(F)cc(CNCCC(C)C)c4)cc23)CC1 [Example 329, 3-[1-(ethylsulfonyl)-4-piperidinyl]-5-(3-fluoro-5-{[(3-methylbutyl)amino]methyl}phenyl)-1H-indole-7-carboxamide trifluoroacetate]	≤ 10	≤ 1.5	
CCCNCCc1cccc(-c2cc(C(N)=O)c3[nH]cc(C4CCN(S(=O)(=O)CC)CC4)c3c2)c1 [Example 347, 3-[1-(ethylsulfonyl)-4-piperidinyl]-5-{3-[2-(propylamino)ethyl]phenyl}-1H-indole-7-carboxamide trifluoroacetate]	≤ 10		0 to 60
CCS(=O)(=O)N1CCC(c2c[nH]c3c(C(N)=O)cc(-c4csc(CN5CCCC5C)c4)cc23)CC1 (stereo not shown) [Example 104, 3-[1-(ethylsulfonyl)-4-piperidinyl]-5-{5-[(2-methyl-1-pyrrolidinyl)methyl]-3-thienyl}-1H-indole-7-carboxamide trifluoroacetate]	≤ 10	≤ 1.5	
CCS(=O)(=O)N1CCC(c2c[nH]c3c(C(N)=O)cc(-c4cccc(CNS(=O)(=O)c5cc(Cl)ccc5Cl)c4)cc23)CC1 [Example 370, 5-[3-({[(2,5-dichlorophenyl)sulfonyl]amino}methyl)phenyl]-3-[1-(ethylsulfonyl)-4-piperidinyl]-1H-indole-7-carboxamide]	≤ 10	≤ 1.5	
CCS(=O)(=O)N1CCC(c2c[nH]c3c(C(N)=O)cc(-c4csc(CN(C)C(C)C)c4)cc23)CC1 [Example 88, 3-[1-(ethylsulfonyl)-4-piperidinyl]-5-(5-{[methyl(1-methylethyl)amino]methyl}-3-thienyl)-1H-indole-7-carboxamide trifluoroacetate]	≤ 10	≤ 1.5	
CCS(=O)(=O)N1CCC(c2c[nH]c3c(C(N)=O)cc(-c4csc(C(C)N(C)CCOC)c4)cc23)CC1 (stereo not shown) [Example 416, 3-[1-(ethylsulfonyl)-4-piperidinyl]-5-[5-(1-{methyl[2-(methyloxy)ethyl]amino}ethyl)-3-thienyl]-1H-indole-7-carboxamide trifluoroacetate]	≤ 10	≤ 1.5	
CCS(=O)(=O)N1CCC(c2c[nH]c3c(C(N)=O)cc(-c4csc(CN5CCC[C@@H]5C)c4)cc23)CC1 [Example 217, 3-[1-(ethylsulfonyl)-4-piperidinyl]-5-(5-{[(2S)-2-methyl-1-pyrrolidinyl]methyl}-3-thienyl)-1H-indole-7-carboxamide]	≤ 10	≤ 1.5	
CCS(=O)(=O)N1CCC(c2c[nH]c3c(C(N)=O)cc(-c4cccc(CN5CCCC5c5cccs5)c4)cc23)CC1 (stereo not shown) [Example 11, 3-[1-(ethylsulfonyl)-4-piperidinyl]-5-(3-{[2-(2-thienyl)-1-pyrrolidinyl]methyl}phenyl)-1H-indole-7-carboxamide]	≤ 10	≤ 1.5	
CCS(=O)(=O)N1CCC(c2c[nH]c3c(C(N)=O)cc(-c4cc(CN5CCCC5)cs4)cc23)CC1 [Example 209, 3-[1-(ethylsulfonyl)-4-piperidinyl]-5-[4-(1-pyrrolidinylmethyl)-2-thienyl]-1H-indole-7-carboxamide trifluoroacetate]	≤ 10	≤ 1.5	
CCS(=O)(=O)N1CCC(c2c[nH]c3c(C(N)=O)cc(-c4csc(CNC(C)C)c4)cc23)CC1 [Example 231, 3-[1-(ethylsulfonyl)-4-piperidinyl]-5-(5-{[(1-methylethyl)amino]methyl}-3-thienyl)-1H-indole-7-carboxamide trifluoroacetate]	≤ 10	≤ 1.5	
CCS(=O)(=O)N1CCC(c2c[nH]c3c(C(N)=O)cc(-c4ccc(CNC5CCCC5)s4)cc23)CC1 [Example 189, 5-{5-[(cyclopentylamino)methyl]-2-thienyl}-3-[1-(ethylsulfonyl)-4-piperidinyl]-1H-indole-7-carboxamide]	≤ 10		0 to 60
CCS(=O)(=O)N1CCC(c2c[nH]c3c(C(N)=O)cc(-c4cc(CNC)cc(CNC)c4)cc23)CC1 [Example 270, 5-{3,5-bis[(methylamino)methyl]phenyl}-3-[1-(ethylsulfonyl)-4-piperidinyl]-1H-indole-7-carboxamide trifluoroacetate]	≤ 10	> 1	
CCS(=O)(=O)N1CCC(c2c[nH]c3c(C(N)=O)cc(-c4ccc(CN[C@@H](C)C(C)C)cc4)cc23)CC1 [Example 161, 5-[4-({[(1S)-1,2-dimethylpropyl]amino}methyl)phenyl]-3-[1-(ethylsulfonyl)-4-piperidinyl]-1H-indole-7-carboxamide trifluoroacetate]	≤ 10	≤ 1.5	
CCS(=O)(=O)N1CCC(c2c[nH]c3c(C(N)=O)cc(-c4ccc5c(c4)C(NCC(C)C)CC5)cc23)CC1 (stereo not shown) [Example 33, 3-[1-(ethylsulfonyl)-4-piperidinyl]-5-{3-[(2-methylpropyl)amino]-2,3-dihydro-1H-inden-5-yl}-1H-indole-7-carboxamide trifluoroacetate]	≤ 10	≤ 1.5	
CCS(=O)(=O)N1CCC(c2c[nH]c3c(C(N)=O)cc(-c4cc(F)cc(CNCc5ccco5)c4)cc23)CC1 [Example 328, 3-[1-(ethylsulfonyl)-4-piperidinyl]-5-(3-fluoro-5-{[(2-furanylmethyl)amino]methyl}phenyl)-1H-indole-7-carboxamide trifluoroacetate]	≤ 10		0 to 60
CCS(=O)(=O)N1CCC(c2c[nH]c3c(C(N)=O)cc(-c4cncc(CNCCOC)c4)cc23)CC1 [Example 174, 3-[1-(ethylsulfonyl)-4-piperidinyl]-5-[5-({[2-(methyloxy)ethyl]amino}methyl)-3-pyridinyl]-1H-indole-7-carboxamide]	≤ 10		0 to 60
CCS(=O)(=O)N1CCC(c2c[nH]c3c(C(N)=O)cc(-c4csc(CN(C)Cc5cccs5)c4)cc23)CC1 [Example 80, 3-[1-(ethylsulfonyl)-4-piperidinyl]-5-(5-{[methyl(2-thienylmethyl)amino]methyl}-3-thienyl)-1H-indole-7-carboxamide trifluoroacetate]	≤ 10		0 to 60
CCS(=O)(=O)N1CCC(c2c[nH]c3c(C(N)=O)cc(-c4ccnc(N5CCOCC5)c4)cc23)CC1 [Example 204, 3-[1-(ethylsulfonyl)-4-piperidinyl]-5-[2-(4-morpholinyl)-4-pyridinyl]-1H-indole-7-carboxamide trifluoroacetate]	≤ 10	> 1	
CCS(=O)(=O)N1CCC(c2c[nH]c3c(C(N)=O)cc(-c4csc(CNCC(C)C)n4)cc23)CC1 [Example 352, 3-[1-(ethylsulfonyl)-4-piperidinyl]-5-(2-{[(2-methylpropyl)amino]methyl}-1,3-thiazol-4-yl)-1H-indole-7-carboxamide trifluoroacetate]	≤ 10		0 to 60
CCS(=O)(=O)N1CCC(c2c[nH]c3c(C(N)=O)cc(-c4csc(CN5CCC[C@H]5C)c4)cc23)CC1 [Example 218, 3-[1-(ethylsulfonyl)-4-piperidinyl]-5-(5-{[(2R)-2-methyl-1-pyrrolidinyl]methyl}-1′-3-thienyl)-1H-indole-7-carboxamide]	≤ 10	≤ 1.5	
CCS(=O)(=O)N1CCC(c2c[nH]c3c(C(N)=O)cc(-c4coc(CNCC5CCCC5)c4)cc23)CC1 [Example 246, 5-(5-{[(cyclopentylmethyl)amino]methyl}-3-furanyl)-3-[1-(ethylsulfonyl)-4-piperidinyl]-1H-indole-7-carboxamide trifluoroacetate]	≤ 10	≤ 1.5	
CCOC(=O)N(C)Cc1cc(-c2cc(C(N)=O)c3[nH]cc(C4CCN(S(=O)(=O)CC)CC4)c3c2)cs1 [Example 433, ethyl[(4-{7-(aminocarbonyl)-3-[1-(ethylsulfonyl)-4-piperidinyl]-1H-indol-5-yl}-2-thienyl)methyl]methylcarbamate]	≤ 10		0 to 60
CCS(=O)(=O)N1CCC(c2c[nH]c3c(C(N)=O)cc(-c4cc(CN5CCOCC5)c5c(c4)OCC5)cc23)CC1 [Example 60, 3-[1-(ethylsulfonyl)-4-piperidinyl]-5-[4-(4-morpholinylmethyl)-2,3-dihydro-1-benzofuran-6-yl]-1H-indole-7-carboxamide]	≤ 10		0 to 60
